Laboratory results reported in PubChem BioAssay AID179 (DTP/NCI, 2004).
Active and inactive are the calls of the source.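 The calls were made as follows: active = compounds giving half or more protection of infected cells from virus-caused growth loss, again on retest; inactive = the rest.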 Where a SMILES comes first, the peptide text is derived from it. Bridges are numbered along the chain shown (N, C = ends). [ ]: non-standard residue; d: D form. The star is where a group is joined. ξ: configuration not given here. PhAc = O=C(Cc1ccccc1)*; Boc = CC(C)(C)OC(=O)*; OBn = c1ccc(CO*)cc1; ξP = O=C(O)C1CCCN1

Test system: CEM cells HIV-1 protection, formazan growth assay
Assay: NCI AIDS Antiviral Assay
Details: for IC50: measured here: growth of uninfected CEM cells
Outline: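 Screen of anti-HIV-1 activity in human CEM cells using a formazan-based growth measurement at five drug concentrations. Hits with 50% or greater protection were repeated, and confirmation required reproducible complete protection.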

## CCCCc1c2c(nc3c1CCc1cc4cc5c(nc4nc1-3)-c1nc3c(c(CCCC)c1CC5)CCCC3=O)C(=O)CCC2
  EC50: > 100 µM
  IC50: 0.457 µM

## Nc1ccc2c(O)c(N=Nc3ccc(-c4ccc(N=Nc5c(S(=O)(=O)O)cc6cc(S(=O)(=O)O)c(N=Nc7cc(Cl)ccc7Cl)c(N)c6c5O)cc4)cc3)c(S(=O)(=O)O)cc2c1
  outcome: inactive

## CCN(CC)CC(=O)Nc1c(C)ccc(N)c1C
  EC50: > 200 µM
  IC50: > 200 µM

## O=C(O)C1C2c3ccccc3C(O)C1(C(=O)O)c1ccccc12 (centres undefined)
  EC50: > 407 µM
  IC50: > 407 µM

## Cc1ccc(/C=C/C(=O)Oc2ccc(/C=C3\CCC/C(=C\c4ccc(OC(=O)/C=C/c5ccc(C)cc5)cc4)C3=O)cc2)cc1
  EC50: > 100 µM
  IC50: > 100 µM

## CC(C)(C)[Si](C)(C)OC[C@H]1O[C@@H](n2ccc(=O)[nH]c2=O)[C@H](O[Si](C)(C)C(C)(C)C)[C@]1(O)[C@H](N=[N+]=[N-])C(N)=O
  EC50: > 200 µM
  IC50: 6.03 µM

## C=CCNc1ncnc2sc(SC)nc12
  EC50: > 200 µM
  IC50: 107 µM

## O=S(=O)(O)c1ccc(Nc2ccnc3cc(Cl)ccc23)cc1
  EC50: > 200 µM
  IC50: > 200 µM

## CCC1SC2=NCCN2C1(O)c1ccc(Cl)cc1 (centres undefined)
  EC50: > 200 µM
  IC50: 102 µM

## CC(NC(=O)CNC(=O)OC(C)(C)C)C(=O)NC(Cc1ccccc1)C(=O)OCc1ccccc1 (stereo not drawn) (Boc-Gly-Ala-Phe-OBn; configuration not given here)
  EC50: > 200 µM
  IC50: 77.6 µM

## C=CC[C@]12CC(=O)OC(C=CC13OCCO3)C2
  EC50: > 200 µM
  IC50: > 200 µM

## N#CC1C(=N)Cc2ccccc2-c2ccccc21 (centres undefined)
  EC50: > 200 µM
  IC50: 1.55 µM

## C=CCC(C)(C(=O)NCCC)C(=O)c1ccccc1O (centres undefined)
  outcome: inactive

## NC(CCCCNC(=O)C(Cc1ccccc1)NC(=O)OCc1ccccc1)C(=O)NC(CCCCNC(=O)C(Cc1ccccc1)NC(=O)OCc1ccccc1)C(=O)NC(CCCCNC(=O)C(Cc1ccccc1)NC(=O)OCc1ccccc1)C(=O)NC(CCCCNC(=O)C(Cc1ccccc1)NC(=O)OCc1ccccc1)C(=O)NC(CCCCNC(=O)C(Cc1ccccc1)NC(=O)OCc1ccccc1)C(=O)NC(CCCCNC(=O)C(Cc1ccccc1)NC(=O)OCc1ccccc1)C(=O)O (centres undefined)
  EC50: > 50.1 µM
  IC50: > 50.1 µM

## O=C(O)/C(Cl)=C(\Cl)C(=O)Nc1ccc(Cl)c(Cl)c1Cl
  outcome: inactive

## CCOP(=O)(OCC)OC1c2[nH]cc(C(=O)OCc3ccccc3)c2-c2cc(C(=O)OC)[nH]c2C1OC (centres undefined)
  EC50: > 200 µM
  IC50: 16.6 µM

## O=[N+]([O-])C1(C[Se]c2cccc(C(F)(F)F)c2)CCCCC1
  outcome: inactive

## Cc1ccc(C)c(NC(=O)/C(=N\N)C(c2cnc3ccc([N+](=O)[O-])cc3n2)[N+](=O)[O-])c1 (centres undefined)
  EC50: > 589 µM
  IC50: 219 µM

## Nc1nc(NCCCO)cc(=O)[nH]1
  EC50: > 200 µM
  IC50: > 200 µM

## CC(C)c1ccccc1NC(=O)C(=O)Cc1nc2ccccc2s1
  outcome: inactive

## O=C1/C(=C/c2cccc3ccccc23)CCc2ccc([N+](=O)[O-])cc21
  EC50: > 200 µM
  IC50: 47.9 µM

## O=C(O)c1cc2ccccc2c(N=Nc2ccc(/C=C/c3ccc(N=Nc4c(O)c(C(=O)O)cc5ccccc45)cc3S(=O)(=O)O)c(S(=O)(=O)O)c2)c1O
  EC50: 8.51 µM
  IC50: 50.1 µM

## CCCCc1c2c(nc3c1CCC/C3=C\c1ccccc1)C(=O)C(CN(C)C)CC2 (centres undefined)
  EC50: > 9.33 µM
  IC50: > 9.33 µM

## c1ccc(CNCCCNCCCCNCCCNCc2ccccc2)cc1
  EC50: > 15.1 µM
  IC50: 1.62 µM

## COc1ccc2c(c1)C(=O)C1CC(=O)CCC21 (centres undefined)
  EC50: > 288 µM
  IC50: > 288 µM

## Cc1ccc(S(=O)(=O)N2CCCCN(S(=O)(=O)c3ccc(C)cc3)Cc3ccccc3OCCOCCOc3c4cccc3Cc3cccc5c3OCCOCCOc3ccccc3CN(S(=O)(=O)c3ccc(C)cc3)CCCN(S(=O)(=O)c3ccc(C)cc3)Cc3ccccc3OCCOCCOc3c(cccc3C4)Cc3cccc(c3OCCOCCOc3ccccc3C2)C5)cc1
  EC50: > 100 µM
  IC50: > 100 µM

## CC12N=NN(c3ccc([N+](=O)[O-])cc3)C1(O)c1ccccc1C2=O (centres undefined)
  EC50: > 200 µM
  IC50: > 200 µM

## C=C/C=C/NC(=O)OCc1ccccc1
  outcome: inactive

## COc1c2c(cc3ccc(=O)oc13)CCO2
  EC50: > 204 µM
  IC50: > 204 µM

## c1ccc2c3c([nH]c2c1)[C@@H]1CCN2CCC[C@@H]2N1CC3
  EC50: > 200 µM
  IC50: 97.7 µM

## O=C1C(C2CCCCC2)=C2OCC3COC2(O3)c2ccccc21 (centres undefined)
  EC50: > 74.1 µM
  IC50: 30.2 µM

## CC1(C)OC(=O)CC12CCN(Cc1ccccc1)CC2
  EC50: > 200 µM
  IC50: 195 µM

## CCOC(=O)/C(=C/c1ccc(C)cc1)C(=O)c1ccccc1
  EC50: > 24.5 µM
  IC50: 15.1 µM

## CCCc1cc(=O)oc2c3c(c4c(c12)OC(C)(C)[C@@H](OC(=O)c1ccc(Br)cc1)[C@H]4OC(=O)c1ccc(Br)cc1)O[C@@H](C)[C@H](C)[C@@H]3OC(=O)c1ccc(Br)cc1
  EC50: > 200 µM
  IC50: > 200 µM

## C[Si](C)(C)/C=C\CCNCc1ccccc1
  EC50: > 776 µM
  IC50: > 776 µM

## CCCC(=O)c1ccc(=O)n(C)c1
  EC50: > 1380 µM
  IC50: 1070 µM

## Cc1nn2c(C(=O)O)nnc2s1
  EC50: > 200 µM
  IC50: > 200 µM

## CC(=O)Oc1ccc2c(c1)Oc1cc(OC(C)=O)ccc1C21OC(=O)c2ccccc21
  EC50: > 200 µM

## O=C1c2ccccc2-c2c1c1ccccc1c(=O)n2Cc1ccco1
  EC50: > 11.5 µM
  IC50: > 11.5 µM

## O=C(C(=NC12CC3CC(CC(C3)C1)C2)NNc1ccc([N+](=O)[O-])cc1[N+](=O)[O-])C(Br)C(=O)c1ccccc1 (centres undefined)
  EC50: > 200 µM
  IC50: 107 µM

## O=C1c2ccccc2C2(c3ccc(Cl)cc3)N[C@H]3CCCC[C@@H]3N12 (some centres undefined)
  EC50: > 200 µM
  IC50: 141 µM

## OCC1CCCC1O (centres undefined)
  outcome: inactive

## O=c1oc2cc(O)ccc2c2oc3cc(O)ccc3c12
  EC50: > 0.513 µM
  IC50: 0.0162 µM

## CCCCCCCCCCCCCCCCN1CCCCCC1=O
  EC50: > 77.6 µM
  IC50: > 77.6 µM

## Cn1c2cc(O)cc(O)c2c(=O)c2c([N+](=O)[O-])cccc21
  EC50: > 141 µM
  IC50: > 141 µM

## CCCCC1=C(C(=O)N2CCOCC2)C2(OCCO2)C1Cl (centres undefined)
  EC50: > 58.9 µM
  IC50: 10 µM

## Cc1noc(NS(=O)(=O)c2ccc(NC(=S)/N=C/c3c(O)[nH]c(=O)[nH]c3=O)cc2)c1C
  EC50: > 200 µM
  IC50: > 200 µM

## CCC(C)C(NC(=O)c1ccccc1SC(=O)OCCCCCl)C(N)=O (centres undefined)
  EC50: 2.75 µM
  IC50: > 200 µM

## CN1CC(C(=O)C2C(=O)c3ccccc3C2=O)C(=O)C(=O)C(C(=O)C2C(=O)c3ccccc3C2=O)C1 (centres undefined)
  outcome: inactive

## CCOC(=O)c1ccc(CS(=O)(=O)c2ccccc2C(=O)OCC)c([N+](=O)[O-])c1
  EC50: > 85.1 µM
  IC50: > 85.1 µM

## CSc1nn(C)cc2ncnc1-2
  EC50: > 200 µM
  IC50: > 200 µM

## C[CH2][Sn]([CH2]C)([O]C(=O)c1ccccc1F)[O]C(=O)c1ccccc1F
  EC50: > 29.5 µM
  IC50: 17.4 µM

## CC1CCCC2=C1C(c1ccc(Cl)cc1)n1c(s/c(=C\c3ccc(Cl)cc3)c1=O)=N2 (centres undefined)
  outcome: inactive

## C=C1CCCCCCCCCCC1S(=O)c1ccccc1 (centres undefined)
  EC50: > 200 µM
  IC50: 12 µM

## Cc1ccc(S(=O)(=O)OC[C@H]2CC=CC[C@H]2COS(=O)(=O)c2ccc(C)cc2)cc1
  EC50: > 200 µM
  IC50: > 200 µM

## O=C(CCC(=O)Nc1ccc(C2=NCCN2)cc1)Nc1ccc(C2=NCCN2)cc1
  EC50: 95.5 µM
  IC50: 141 µM

## CC1CC(C)(C)N=C(CCCO)O1 (centres undefined)
  EC50: > 200 µM
  IC50: > 200 µM

## O=C(Cc1ccccc1)N[C@@H]1COC(=O)C2CCCN2C(=O)[C@@H]2CCCN2C1=O (some centres undefined) (PhAc-[dS]-Pro-[ξP]; ester 1-C)
  EC50: > 200 µM
  IC50: > 200 µM

## [N-]=[N+]=CC(=O)OCCCCl
  EC50: > 200 µM
  IC50: > 200 µM

## CN(C)CCNC(=O)c1cc([N+](=O)[O-])ccn1
  EC50: > 200 µM
  IC50: 95.5 µM

## CC(C)CC1=[N+]=C(NC#N)N=C(CCC(=O)Nc2ccccc2[N+](=O)[O-])C1
  EC50: > 676 µM
  IC50: > 676 µM

## O=[N+]([O-])c1ccc(C2CC3(c4ccccc4)ON=C(c4ccccc4)N3c3ccccc3S2)cc1 (centres undefined)
  EC50: > 200 µM
  IC50: 102 µM

## O=C(CC1(O)C(=O)Nc2c(Cl)ccc(Cl)c21)c1ccc2ccccc2c1 (centres undefined)
  EC50: > 245 µM
  IC50: 14.5 µM

## Cc1ccsc1/C=N/Nc1ccccn1
  EC50: > 200 µM
  IC50: 21.4 µM

## O=C(Nc1ccc2oc3ccc(Cl)cc3c(=O)c2c1)c1ccc(Cl)cc1Cl
  EC50: > 12.3 µM
  IC50: > 12.3 µM

## CCCCCC=C(c1cc(F)c(OC)c(C(=O)OC)c1)c1cc(F)c(OC)c(C(=O)OC)c1
  EC50: > 200 µM
  IC50: 115 µM

## CC(C)CC12CC3CCC(CNC1=O)C32C (centres undefined)
  outcome: inactive

## O=C(C=Nc1ccccc1C(=O)[O-])c1cccs1.O=C(C=Nc1ccccc1C(=O)[O-])c1cccs1.[Zn+2]
  outcome: inactive

## C1CN2CN1CN1CCN(C1)C2
  EC50: > 200 µM
  IC50: 22.9 µM

## Cc1noc(NS(=O)(=O)c2ccc(N=c3c4ccccc4n(C)c4ccccc34)cc2)c1C
  outcome: inactive

## N=C(N)SCc1ccc(Cl)cc1Cl (tested in a mixture with another compound)
  EC50: > 100 µM
  IC50: 60.3 µM

## CN(C)CCCN1C(=O)CCC(=O)Nc2ccccc2-c2ccccc21
  outcome: inactive

## Cc1cc(C2CC(O)C(CO)O2)c(F)cc1F (centres undefined)
  EC50: > 200 µM
  IC50: > 200 µM

## CCN(CC)CC(C)C(O)(c1ccc(Cl)cc1)C1CCCCC1 (centres undefined)
  EC50: > 200 µM
  IC50: 13.2 µM

## CCOP(=O)(OCC)/C(C#N)=C/C=C/c1ccco1
  EC50: > 646 µM
  IC50: 148 µM

## N#CN/C(N)=N/C/N=C(\N)NC#N
  EC50: > 501 µM
  IC50: > 501 µM

## O=[N+]([O-])c1ccc(C2SCc3nc4ccccc4n32)cc1 (centres undefined)
  EC50: > 55 µM
  IC50: 33.1 µM

## Cn1c2ccccc2n2c(=O)c3c(c(C#N)c12)CCCC3
  EC50: > 7.24 µM
  IC50: > 7.24 µM

## c1cncc(-c2nc3sc(-c4cccnc4)nc3s2)c1
  outcome: inactive

## CCOC(=O)C1=C(NC(C)(C)C)OC/C1=N\NC(=O)Cc1ccccc1
  EC50: > 72.4 µM
  IC50: > 72.4 µM

## CC1(C)OC(C(C)(C)O)C(C(C)(C)O)O1 (centres undefined)
  EC50: > 200 µM
  IC50: > 200 µM

## NCCSSc1ccccc1C(=O)O
  EC50: > 200 µM
  IC50: > 200 µM
